{
  "source": "paper PMC2912288",
  "about": "(International journal of pharmaceutics, 2010)",
  "key": {"[1]": {"target": "T1, human apical sodium-dependent bile acid transporter (ASBT) (Homo sapiens, UniProt Q12908)", "T1 sequence (Q12908 1-348)": "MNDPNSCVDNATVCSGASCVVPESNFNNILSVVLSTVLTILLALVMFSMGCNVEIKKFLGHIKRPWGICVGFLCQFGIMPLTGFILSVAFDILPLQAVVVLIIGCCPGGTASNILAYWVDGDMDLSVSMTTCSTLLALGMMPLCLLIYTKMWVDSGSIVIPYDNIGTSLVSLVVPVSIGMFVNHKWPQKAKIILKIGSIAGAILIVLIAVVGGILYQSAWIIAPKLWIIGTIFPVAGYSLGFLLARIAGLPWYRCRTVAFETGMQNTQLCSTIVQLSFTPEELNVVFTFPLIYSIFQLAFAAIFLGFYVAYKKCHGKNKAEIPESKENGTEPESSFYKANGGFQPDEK", "test": "Inhibition of taurocholate uptake by prodrugs in ASBT-MDCK monolayers", "format": "cell-based", "conditions": "taurocholate uptake into ASBT-MDCK monolayers, 10 min"}, "[2]": {"conditions": "ref Porter and Kaplan, 2009; cited from earlier work"}, "[3]": {"conditions": "of the drug moiety; source not stated; cited from earlier work"}, "[4]": {"target": "T1, human apical sodium-dependent bile acid transporter (ASBT)", "test": "Uptake of prodrug into ASBT-MDCK monolayers"}, "[5]": {"target": "Pept1", "conditions": "CHO-PepT1; ref Han et al., 1998; cited from earlier work"}, "[6]": {"target": "Pept1", "conditions": "Xenopus laevis oocytes; ref Balimane et al., 1998; cited from earlier work"}, "[7]": {"conditions": "ref Burnette and de, 1994; cited from earlier work"}, "[8]": {"conditions": "prodrug uptake into ASBT-MDCK, 1–500 μM, 10 min, 37°C, mean (±SEM) of three measurements"}},
  "note": "“Also recorded” adds a separate entry of the source. Like-named read-outs stand apart in the source and are kept apart here.",
  "data": [
    {"compound": "CC(C(=O)O)c1cccc(C(=O)c2ccccc2)c1", "note": "(stereo not drawn) [ketoprofen, Ketoprofen]", "values": [
      {"measurement": "ASBT inhibition (result in words)", "setting": "[1]", "value": "Neither ketoprofen nor niacin was ASBT inhibitor; also recorded: not reduced"}
    ]},
    {"compound": "O=C(O)c1cccnc1", "note": "[niacin, nicotinic acid]", "values": [
      {"measurement": "ASBT inhibition (result in words)", "setting": "[1]", "value": "Neither ketoprofen nor niacin was ASBT inhibitor; also recorded: not reduced"},
      {"measurement": "half-life", "setting": "[2]", "value": "20 to 45", "unit": "min"},
      {"measurement": "Log P", "setting": "[3]", "value": 0.25}
    ]},
    {"compound": "C[C@H](CCC(=O)NCCS(=O)(=O)O)[C@H]1CC[C@H]2[C@@H]3[C@H](O)C[C@@H]4C[C@H](O)CC[C@]4(C)[C@H]3C[C@H](O)[C@]12C", "note": "[taurocholate, Taurocholic acid]", "values": [
      {"measurement": "Kt", "setting": "[4]; taurocholate, obtained from a pooled data analysis approach", "value": 5.03, "unit": "µM"}
    ]},
    {"compound": "CC(C)[C@H](N)C(=O)OCCOCn1cnc2c(=O)[nH]c(N)nc21", "note": "[valacyclovir]", "values": [
      {"measurement": "Ki", "setting": "[5]", "value": 1100, "unit": "µM"},
      {"measurement": "Ki", "setting": "[6]", "value": 4080, "unit": "µM"},
      {"measurement": "increase of acyclovir bioavailability", "setting": "[7]", "value": 3, "unit": "fold"}
    ]},
    {"compound": "CDCA-lysine-ketoprofen", "values": [
      {"measurement": "transport capacity relative to the capacity for taurocholate", "setting": "[4]; from normJmax", "value": 1.87, "unit": "fold"},
      {"measurement": "Kt", "setting": "[4]; [8]", "value": "50.8 (±23.2) μM"}
    ]},
    {"compound": "CDCA-lysine-niacin", "values": [
      {"measurement": "ASBT's capacity to transport, relative to that of taurocholate", "setting": "[4]; from normJmax", "value": "about 9%"},
      {"measurement": "Kt", "setting": "[4]; [8]", "value": "8.22 (±3.63) μM"}
    ]}
  ]
}
